Results as given in ChEMBL document CHEMBL1134968, “Prodrug and covalent linker strategies for the solubilization of dual-action antioxidants/iron chelators” (Bioorg Med Chem Lett, 2002).
≈ marks a conversion by molar mass, not a printed value.

Assay: Compound was tested for its solubility in DMSO/H2O in a ratio of (1:9)
Type: ADME
Conditions: DMSO/H2O (1:9); read-out: S

solubility | Compound
10000 µg/mL | Cc1c(O)c(=O)ccn1CCNCc1cc(C(C)(C)C)c(O)c(C(C)(C)C)c1

Assay: Compound was tested for its solubility in water
Type: ADME
Conditions: read-out: S

Compound | solubility
Cc1c(C)c2c(c(C)c1O)CC(CCn1ccc(=O)c(O)c1C)O2 (stereo not given) | < 100 µg/mL
CNCC(=O)Oc1c(C)c(C)c2c(c1C)CC(CCn1ccc(=O)c(O)c1C)O2 (stereo not given) | > 20000 µg/mL
Cc1c(O)c(=O)ccn1CCOCCOCCOCCOCCCc1cc(C(C)(C)C)c(O)c(C(C)(C)C)c1 | < 100 µg/mL
Cc1c(C)c2c(c(C)c1OC(=O)CCCN)CC(CCn1ccc(=O)c(O)c1C)O2 (stereo not given) | 10000 µg/mL (≈ 24.1 mM)
Cc1c(C)c2c(c(C)c1OC(=O)CCN)CC(CCn1ccc(=O)c(O)c1C)O2 (stereo not given) | 10000 µg/mL (≈ 25 mM)
Cc1c(C)c2c(c(C)c1OC(=O)C(N)C(C)C)CC(CCn1ccc(=O)c(O)c1C)O2 (stereo not given) | > 20000 µg/mL
Cc1c(C)c2c(c(C)c1OC(=O)CN(C)C)CC(CCn1ccc(=O)c(O)c1C)O2 (stereo not given) | > 20000 µg/mL
Cc1c(C)c2c(c(C)c1OC(=O)c1ccc(N)cc1)CC(CCn1ccc(=O)c(O)c1C)O2 (stereo not given) | < 100 µg/mL
Cc1c(O)c(=O)ccn1CCOCCOCCOCCOCCOCCCc1cc(C(C)(C)C)c(O)c(C(C)(C)C)c1 | < 100 µg/mL
Cc1c(C)c2c(c(C)c1O)CCC(C)(CNCCCCn1ccc(=O)c(O)c1C)O2 (stereo not given) | < 100 µg/mL

Continued, values first:

solubility | Compound
< 100 µg/mL | Cc1c(OC(=O)c2ccc(N)cc2)c(=O)ccn1CCCc1cc(C(C)(C)C)c(O)c(C(C)(C)C)c1
< 100 µg/mL | CC(=O)Oc1c(C)n(CCCc2cc(C(C)(C)C)c(O)c(C(C)(C)C)c2)ccc1=O
< 100 µg/mL | Cc1c(O)c(=O)ccn1CCCc1cc(C(C)(C)C)c(O)c(C(C)(C)C)c1
> 20000 µg/mL | Cc1c(OC(=O)CCN)c(=O)ccn1CCCc1cc(C(C)(C)C)c(O)c(C(C)(C)C)c1
